Columns and labels:
[1] = system: blackgrass; assay: Test C preemergence; type: in vivo, Alopecurus myosuroides; details: for Plant response rating (scale of 0 to 100 where 0 is no effect and 100 is complete control): Blackgrass, preemergence; for Blackgrass plant response rating (0 to 100): Preemergence, visual rating after 13 to 15 d
Description: (§1) Seeds of plant species selected from blackgrass (Alopecurus myosuroides), ryegrass, Italian (Italian ryegrass, Lolium multiflorum), wheat (winter wheat, Triticum aestivum), galium (catchweed bedstraw, Galium aparine), corn (Zea mays), crabgrass, large (large crabgrass, Digitaria sanguinalis), foxtail, giant, (giant foxtail, Setaria faberii), johnsongrass (Sorghum halepense), lambsquarters (Chenopodium album), morningglory (Ipomoea coccinea), nutsedge, yellow (yellow nutsedge, Cyperus esculentus), pigweed (Amaranthus retroflexus), ragweed (common ragweed, Ambrosia elatior), soybean (Glycine max), barnyardgrass (Echinochloa crus-galli), oilseed rape (Brassica napus), waterhemp (common waterhemp, Amaranthus rudis), and velvetleaf (Abutilon theophrasti) were planted into a blend of loam soil and sand and treated preemergence with test chemicals formulated in a non-phytotoxic solvent mixture which included a surfactant. At the same time, plants selected from these crop and weed species and also chickweed (common chickweed, Stellaria media), oat, wild (wild oat, Avena fatua), and kochia (Kochia scoparia), were planted in pots containing Sunshine Redi-Earth® planting medium comprising spaghnum peat moss, vermiculite, starter nutrients and dolomitic limestone and treated with postemergence applications of test chemicals formulated in the same manner. Plants ranged in height from 2 to 18 cm (1- to 4-leaf stage) for postemergence treatments. […] A dash (-) response means no test result.

[2] = system: soybean; assay: Test C preemergence; type: in vivo, Glycine max; details: for Soybean plant response rating (0 to 100): Preemergence, visual rating after 13 to 15 d
Description: as §1

[3] = system: oilseed rape; assay: Test C preemergence; type: in vivo, Brassica napus; details: for Plant response rating (scale of 0 to 100 where 0 is no effect and 100 is complete control): Oilseed Rape, preemergence; for Oilseed Rape plant response rating (0 to 100): Preemergence, visual rating after 13 to 15 d
Description: as §1

[4] = system: waterhemp; assay: Test C preemergence; type: in vivo, Amaranthus rudis; details: for Waterhemp plant response rating (0 to 100): Preemergence, visual rating after 13 to 15 d
Description: as §1

[5] = system: blackgrass; assay: Test D preemergence; type: in vivo, Alopecurus myosuroides; details: for Plant response rating: Blackgrass: scale 0 to 100
Description: (§2) Seeds of plant species selected from bluegrass (annual bluegrass, Poa annua), blackgrass (Alopecurus myosuroides), canarygrass (Phalaris minor), chickweed (common chickweed, Stellaria media), galium (catchweed bedstraw, Galium aparine), bromegrass, down (downy bromegrass, Bromus tectorum), Russian thistle (Salsola kali), field poppy (Papaver rhoeas), field violet (Viola arvensis), foxtail, green (green foxtail, Setaria viridis), deadnettle (henbit deadnettle, Lamium amplexicaule), ryegrass, Ital. (Italian ryegrass, Lolium multiflorum), kochia (Kochia scoparia), lambsquarters (Chenopodium album), oilseed rape (Brassica napus), pigweed (Amaranthus retroflexus), chamomile (scentless chamomile, Matricaria inodora), speedwell (bird's-eye speedwell, Veronica persica), barley, spring (spring barley, Hordeum vulgare), wheat, spring (spring wheat, Triticum aestivum), buckwheat, wild (wild buckwheat, Polygonum convolvulus), wild mustard (Sinapis arvensis), oat, wild (wild oat, Avena fatua), radish, wild (wild radish, Raphanus raphanistrum), […]), barley, winter (winter barley, Hordeum vulgare), and wheat, winter (winter wheat, Triticum aestivum) were planted into a silt loam soil and treated preemergence with test chemicals formulated in a non-phytotoxic solvent mixture which included a surfactant. At the same time, these species were planted in pots containing Sunshine Redi-Earth® planting medium comprising spaghnum peat moss, vermiculite, starter nutrients and dolomitic limestone and treated with postemergence applications of the test chemicals formulated in the same manner. Plants ranged in height from 2 to 18 cm (1- to 4-leaf stage). Treated plants and controls were maintained in a controlled growth environment for 14 to 21 d after which time all species were compared to controls and visually evaluated. […] A dash (-) response means no test result.

[6] = system: canarygrass; assay: Test D preemergence; type: in vivo, Phalaris minor; details: for Plant response rating: Canarygrass: scale 0 to 100
Description: as §2

[7] = system: Russian thistle; assay: Test D preemergence; type: in vivo, Salsola kali; details: for Plant response rating: Russian Thistle: scale 0 to 100
Description: as §2

[8] = system: field poppy; assay: Test D preemergence; type: in vivo, Papaver rhoeas; details: for Plant response rating: Field Poppy: scale 0 to 100
Description: as §2

[9] = system: field violet; assay: Test D preemergence; type: in vivo, Viola arvensis; details: for Plant response rating: Field Violet: scale 0 to 100
Description: as §2

[10] = system: kochia; assay: Test D preemergence; type: in vivo, Kochia scoparia; details: for Plant response rating: Kochia: scale 0 to 100
Description: as §2

[11] = system: oat, wild; assay: Test D preemergence; type: in vivo, Avena fatua; details: for Plant response rating: Oat, Wild: scale 0 to 100
Description: as §2

[12] = system: foxtail, green; assay: Test D postemergence; type: in vivo, Setaria viridis; details: scale 0 to 100
Description: as §2

[13] = system: deadnettle; assay: Test D postemergence; type: in vivo, Lamium amplexicaule; details: scale 0 to 100
Description: as §2

[14] = system: pigweed; assay: Test D postemergence; type: in vivo, Amaranthus retroflexus; details: scale 0 to 100
Description: as §2

[15] = system: buckwheat, wild; assay: Test D postemergence; type: in vivo, Polygonum convolvulus; details: scale 0 to 100
Description: as §2

[16] = system: radish, wild; assay: Test D postemergence; type: in vivo, Raphanus raphanistrum; details: scale 0 to 100
Description: as §2

[17] = 16 g ai/ha, 0 is no effect, 100 is complete control

CCOc1nc(-c2ccccc2)nn1Cc1ccnc(C(F)(F)F)c1 [Compound 27]
Plant response rating (scale of 0 to 100 where 0 is no effect and 100 is complete control) ([1]; 125 g ai/ha): 50
Plant response rating (scale of 0 to 100 where 0 is no effect and 100 is complete control) ([1]; 250 g ai/ha): 90
Blackgrass plant response rating (0 to 100) ([1]; 31 g ai/ha): 5
Blackgrass plant response rating (0 to 100) ([1]; 62 g ai/ha): 5
Soybean plant response rating (0 to 100) ([2]; 31 g ai/ha): 35
Soybean plant response rating (0 to 100) ([2]; 62 g ai/ha): 40
Plant response rating (scale of 0 to 100 where 0 is no effect and 100 is complete control) ([2]; Soybean, preemergence, 250 g ai/ha): 75
Plant response rating (scale of 0 to 100 where 0 is no effect and 100 is complete control) ([3]; 125 g ai/ha): 100
Plant response rating (scale of 0 to 100 where 0 is no effect and 100 is complete control) ([3]; 250 g ai/ha): 100
Oilseed Rape plant response rating (0 to 100) ([3]; 31 g ai/ha): 90
Oilseed Rape plant response rating (0 to 100) ([3]; 62 g ai/ha): 90
Waterhemp plant response rating (0 to 100) ([4]; 31 g ai/ha): 100
Waterhemp plant response rating (0 to 100) ([4]; 62 g ai/ha): 100
Plant response rating (scale of 0 to 100 where 0 is no effect and 100 is complete control) ([4]; Waterhemp, preemergence, 250 g ai/ha): 100
Plant response rating (0 to 100), Blackgrass [5, 17]: 25
Plant response rating: Blackgrass ([5]; 31 g ai/ha): 30
Plant response rating: Blackgrass ([5]; 62 g ai/ha): 45
Plant response rating: Blackgrass ([5]; 125 g ai/ha): 70
Plant response rating (0 to 100), Canarygrass [6, 17]: 35
Plant response rating: Canarygrass ([6]; 31 g ai/ha): 55
Plant response rating: Canarygrass ([6]; 62 g ai/ha): 75
Plant response rating: Canarygrass ([6]; 125 g ai/ha): 98
Plant response rating (0 to 100), Russian Thistle [7, 17]: 75
Plant response rating: Russian Thistle ([7]; 62 g ai/ha): 85
Plant response rating: Russian Thistle ([7]; 125 g ai/ha): 85
Plant response rating (0 to 100), Field Poppy [8, 17]: 95
Plant response rating: Field Poppy ([8]; 62 g ai/ha): 100
Plant response rating: Field Poppy ([8]; 125 g ai/ha): 100
Plant response rating (0 to 100), Field Violet [9, 17]: 85
Plant response rating: Field Violet ([9]; 62 g ai/ha): 98
Plant response rating: Field Violet ([9]; 125 g ai/ha): 100
Plant response rating (0 to 100), Kochia [10, 17]: 85
Plant response rating: Kochia ([10]; 62 g ai/ha): 95
Plant response rating: Kochia ([10]; 125 g ai/ha): 100
Plant response rating (0 to 100), Oat, Wild [11, 17]: 25
Plant response rating: Oat, Wild ([11]; 62 g ai/ha): 45
Plant response rating: Oat, Wild ([11]; 125 g ai/ha): 75
Plant response rating: Foxtail, Green ([12]; 16 g ai/ha): 35
Plant response rating: Foxtail, Green ([12]; 31 g ai/ha): 65
Plant response rating: Foxtail, Green ([12]; 62 g ai/ha): 80
Plant response rating: Foxtail, Green ([12]; 125 g ai/ha): 95
Plant response rating: Deadnettle ([13]; 16 g ai/ha): 55
Plant response rating: Deadnettle ([13]; 31 g ai/ha): 75
Plant response rating: Deadnettle ([13]; 62 g ai/ha): 95
Plant response rating: Deadnettle ([13]; 125 g ai/ha): 100
Plant response rating: Pigweed ([14]; 16 g ai/ha): 100
Plant response rating: Pigweed ([14]; 31 g ai/ha): 100
Plant response rating: Pigweed ([14]; 62 g ai/ha): 100
Plant response rating: Pigweed ([14]; 125 g ai/ha): 100
Plant response rating: Buckwheat, Wild ([15]; 16 g ai/ha): 65
Plant response rating: Buckwheat, Wild ([15]; 31 g ai/ha): 80
Plant response rating: Buckwheat, Wild ([15]; 62 g ai/ha): 70
Plant response rating: Buckwheat, Wild ([15]; 125 g ai/ha): 85
Plant response rating: Radish, Wild ([16]; 16 g ai/ha): 85
Plant response rating: Radish, Wild ([16]; 31 g ai/ha): 90
Plant response rating: Radish, Wild ([16]; 62 g ai/ha): 100
Plant response rating: Radish, Wild ([16]; 125 g ai/ha): 100

Reference: patent publication US10681909B2, “Herbicidal triazoles” (FMC Corporation, priority 2014, dated 2020)
